Patent publication US20050202505A1, “Method to identify modulators for human 3alpha-hydroxysteroid dehydrogenase” (priority 2001, published 2005)

Columns and labels:
[1] = target: T1, 3a-HSD (Homo sapiens, UniProt P52895); experiment: NMR ligand binding (line broadening of ligand resonances in the presence of protein); details: ligand resonances in the presence of 3a-HSD
T1 construct: Full length type III 3a-HSD cDNA is amplified by RT-PCR from human fetal brain total RNA; made in house; host or cells: E. coli BL21 (DE3)
T1 sequence (P52895 1-323): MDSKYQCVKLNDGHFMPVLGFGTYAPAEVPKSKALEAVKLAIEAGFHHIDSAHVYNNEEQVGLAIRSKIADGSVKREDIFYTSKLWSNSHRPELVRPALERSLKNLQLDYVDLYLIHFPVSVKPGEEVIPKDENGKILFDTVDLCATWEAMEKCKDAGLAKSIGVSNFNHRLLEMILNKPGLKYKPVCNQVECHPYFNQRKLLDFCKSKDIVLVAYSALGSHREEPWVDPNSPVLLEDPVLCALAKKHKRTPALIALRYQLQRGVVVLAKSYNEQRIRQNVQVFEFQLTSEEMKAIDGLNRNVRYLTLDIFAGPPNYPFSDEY
Text: Binding of natural ligands is a prerequisite for functionality. One method to detect ligand binding by NMR takes advantage of the increased transverse relaxation rates of the ligand protons when the ligand is bound. Increased line widths in the presence of protein thus indicates binding. Binding experiments of NADP to 3a-HSD are done and check by NMR. In the presence of 3a-HSD, the NADP peaks are broadened so much that they are hardly visible in the spectrum.
(§1) Even then, the maximum achievable concentration of allo-pregnanolone is only about 20 μM. […] Based on the NMR analysis, 3a-HSD appears well-folded and functional in respect to cofactor- and ligand-binding.

[2] = maximum achievable concentration in aqueous NMR sample with co-solvents; type: physicochemical; details: water with 2% DMSO-d6 and 5% ethanol as co-solvents
Protocol: as §1

[3] = target: T2, 3a-HSD type III (Homo sapiens, UniProt P52895); experiment: NMR screening of fragment library; type: binding
T2 construct: Full length type III 3a-HSD cDNA is amplified by RT-PCR from human fetal brain total RNA; made in house; host or cells: E. coli BL21 (DE3)
T2 sequence (P52895 1-323): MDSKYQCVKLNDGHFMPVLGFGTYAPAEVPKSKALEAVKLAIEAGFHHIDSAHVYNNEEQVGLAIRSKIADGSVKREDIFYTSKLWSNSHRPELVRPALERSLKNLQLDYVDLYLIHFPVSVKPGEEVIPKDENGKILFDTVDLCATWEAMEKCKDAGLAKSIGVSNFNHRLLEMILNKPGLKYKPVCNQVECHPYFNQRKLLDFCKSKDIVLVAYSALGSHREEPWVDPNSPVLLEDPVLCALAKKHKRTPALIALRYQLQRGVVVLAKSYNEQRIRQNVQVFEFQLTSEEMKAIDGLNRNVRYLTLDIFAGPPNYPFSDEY
Text: NMR spectroscopy can be used to discover and design inhibitors of 3a-HSD type III. This is due to the well-known ability of NMR to detect interactions between ligands and a target protein, even if the interactions are only weak and have affinities in the millimolar range (Diercks, T.; Coles, M.; Kessler, H. Applications of NMR in drug discovery. Curr. Opin. Chem. Biol. 2001, 5, 285-291; Hajduk, P. J.; Meadows, R. P.; Fesik, S. W. NMR-based screening in drug discovery. Q. Rev. Biophys. 1999, 32, 211-240; Pellecchia, M.; Sem, D. S.; Wuthrich, K. NMR in drug discovery. Nature Reviews Drug Discovery 2002, 1, 211-219). For this purpose, a solution of 3a-HSD is added to a mixture of compounds, and NMR properties of the compounds, such as their relaxation rates, are measured and compared in the presence and absence of 3a-HSD. […] This effect can be enhanced by about a factor of 15 if side chains of 3a-HSD are spin-labeled with paramagnetic centers such as TEMPO (2,2,6,6-Tetramethylpiperidin-N-oxyl) or PROXYL (2,2,5,5-Tetramethylpyrrolidine-N-oxyl) (Jahnke, W.; Ruedisser, S.; Zurini, M. Spin Label Enhanced NMR Screening. J. Am. Chem. Soc. 2001, 123, 3149-3150; Jahnke, W. Spin labels as a tool to identify and characterize protein—ligand interactions by NMR spectroscopy. ChemBioChem 2002, 3, 167-173). […]

[4] = target: T3, recombinant type-3 human 3a-HSD (Homo sapiens, UniProt P52895); experiment: functional in vitro assay, oxidation of 3H-ALLO to 3H-5α-DHP; type: biochemical; details: NADP+, pH 7.4, 37° C., read-out: Ki OX
T3 construct: Full length type III 3a-HSD cDNA is amplified by RT-PCR from human fetal brain total RNA; made in house; host or cells: E. coli BL21 (DE3)
T3 sequence (P52895 1-323): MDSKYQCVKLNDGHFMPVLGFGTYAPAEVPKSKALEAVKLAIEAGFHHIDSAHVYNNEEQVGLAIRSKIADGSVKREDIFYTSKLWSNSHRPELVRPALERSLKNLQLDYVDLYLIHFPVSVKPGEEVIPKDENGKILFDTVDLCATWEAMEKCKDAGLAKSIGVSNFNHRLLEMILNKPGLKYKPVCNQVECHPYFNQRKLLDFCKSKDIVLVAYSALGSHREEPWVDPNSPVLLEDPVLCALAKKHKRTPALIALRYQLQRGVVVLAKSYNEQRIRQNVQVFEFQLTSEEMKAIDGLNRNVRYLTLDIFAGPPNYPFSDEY
Text: (§2) Materials: Steroid standards (>98% purity) were purchased from Sigma Chemical Co. ^3H-allopregnanolone (64 Ci/mmol, [9, 11, 12-^3H(N)]-allopregnanolone, herein after referred to as ^3H-ALLO) was purchased from New England Nuclear. ^3H-5α-dihydroprogesterone (^3H-5α-DHP) was synthesized in our lab using an enzymatic conversion of ^3H-ALLO to ^3H-5α-DHP by the 3a-HSD (see Enzymatic reactions). The oxidation product ^3H-5α-DHP was isolated and purified by semi-preparative HPLC and confirmed by GC/MS. All solvents were of analytical grade (Merck) and were used without further purification.
(§3) Enzymatic reactions (oxidation of ^3H-ALLO to ^3H-5α-DHP and reduction of ^3H-5α-DHP to ^3H-ALLO): All enzymatic reactions were performed using pure recombinant type-3 human 3a-HSD expressed in E. coli and refolded and purified from bacterial inclusion bodies. ^3H-5a-DHP reduction was conducted in 100 μl reaction systems containing 100 mM sodium phosphate (pH 7.4), 4 μg of recombinant enzyme, 2 mM NADPH and 2.5 μM ^3H-5α-DHP (40 000 cpm) in 4% acetonitrile. Similarly, ^3H-ALLO oxidation was conducted in 100 μl reaction systems containing 100 mM sodium phosphate (pH 7.4), 4 μg of recombinant enzyme, 2 mM NADP^+ and 2.5 μM ^3H-ALLO (40 000 cpm) in 4% acetonitrile. Reactions were initiated by the addition of the respective substrate and were incubated at 37° C. for 25 min. […]

[5] = substrate: CC(=O)[C@H]1CC[C@H]2[C@@H]3CC[C@H]4C[C@H](O)CC[C@]4(C)[C@H]3CC[C@]12C; experiment: as above; type: biochemical; details: other: oxidation of ALLO by the type-3 human 3a-HSD; pH 7.4; 37.0 °C
Text: as §2, §3

In the case of CC(=O)[C@H]1CC[C@H]2[C@@H]3CC[C@H]4C[C@H](O)CC[C@]4(C)[C@H]3CC[C@]12C [allopregnanolone, 3α-hydroxy-5a-pregnan-20-one], the “binding to 3a-HSD detected by NMR line broadening” value [1] is reported as “proven” and the maximum achievable concentration [2] is reported as “about 20 μM”.

With CC(=O)c1cc2ccccc2o1 [2-acetylbenzofuran] the “binding to 3a-HSD” value ([3]; NMR screening hit) was “only weakly”, the dissociation rate ([3]; observed by NMR, severe line broadening) was “so slow” and the Ki [4] was roughly 132 µM.

In the case of NC(=O)c1ccc[n+]([C@@H]2O[C@H](COP(=O)([O-])OP(=O)(O)OC[C@H]3O[C@@H](n4cnc5c(N)ncnc54)[C@H](OP(=O)(O)O)[C@@H]3O)[C@@H](O)[C@H]2O)c1 [NADP], the “binding to 3a-HSD detected by NMR line broadening” value [1] is reported as “proves binding”.

B1: recombinant type-3 human 3a-HSD (Homo sapiens) (protein)
chain: MDSKYQCVKLNDGHFMPVLGFGTYAPAEVPKSKALEAVKLAIEAGFHHIDSAHVYNNEEQVGLAIRSKIADGSVKREDIFYTSKLWSNSHRPELVRPALERSLKNLQLDYVDLYLIHFPVSVKPGEEVIPKDENGKILFDTVDLCATWEAMEKCKDAGLAKSIGVSNFNHRLLEMILNKPGLKYKPVCNQVECHPYFNQRKLLDFCKSKDIVLVAYSALGSHREEPWVDPNSPVLLEDPVLCALAKKHKRTPALIALRYQLQRGVVVLAKSYNEQRIRQNVQVFEFQLTSEEMKAIDGLNRNVRYLTLDIFAGPPNYPFSDEY
Work on B1 yielded a Km [5] of 4.9 µM.
